According to patent US10973771B2, “Method of making particles for use in a pharmaceutical composition” (VECTURA LIMITED, priority 2000, dated 2021):

Experiment: Fine particle fraction, capsule fired from twin stage impinger (TSI)
Type: physicochemical
Conditions: 20mg capsule fired from a twin stage impinger
Description: The 3:1 and the 19:1 blends were then each loaded into a 20mg capsule and fired from a twin stage impinger. A sample of unprocessed salbutamol sulphate was also fired from the TSI to provide a comparison.

## salbutamol sulphate
  Fine Particle Fraction %: 28%
